Results reported in the NIST ThermoML archive (doi:10.1016/j.fluid.2009.06.018).

Tests used:
[1] = 298.15 K; 101.33 kPa; Liquid; Vibrating tube method
[2] = refractive index (Na D-line) (dimensionless); conditions: 298.15 K; 101.33 kPa; Liquid; Standard Abbe refractometry
[3] = excess molar enthalpy (molar enthalpy of mixing); xn = mol fraction of the nth substance listed; conditions: 298.15 K, 101 kPa, Liquid, Flow calorimetry
[4] = xn = mol fraction of the nth substance listed; conditions: 298.15 K, 101 kPa, Liquid, Vibrating tube method

CCCCOCCOCCOCCO [triethylene glycol monobutyl ether]
Conditions	mass density [kg/m3]	refractive index
[1]	988.44	–
[2]	–	1.43973

COCCOCCOCCO [2-[2-(2-methoxyethoxy)ethoxy]ethanol] + CC(Cl)CCl
Conditions	excess molar enthalpy [kcal/mol]	mass density [kg/m3]
[3], x2 = 0.061	-0.0429	–
[3], x2 = 0.091	-0.0565	–
[3], x2 = 0.15	-0.0912	–
[3], x2 = 0.206	-0.119	–
[3], x2 = 0.26	-0.14	–
[3], x2 = 0.311	-0.1575	–
[3], x2 = 0.36	-0.1693	–
[3], x2 = 0.407	-0.1774	–
[3], x2 = 0.452	-0.1811	–
[3], x2 = 0.496	-0.1814	–
[3], x2 = 0.558	-0.1759	–
[3], x2 = 0.597	-0.1682	–
[3], x2 = 0.654	-0.1526	–
[3], x2 = 0.707	-0.133	–
[3], x2 = 0.757	-0.111	–
[3], x2 = 0.805	-0.0875	–
[3], x2 = 0.851	-0.0629	–
[3], x2 = 0.908	-0.0328	–
[3], x2 = 0.949	-0.0144	–
[4], x2 = 0.0554	–	1047.4
[4], x2 = 0.1	–	1050.82
[4], x2 = 0.1507	–	1054.88
[4], x2 = 0.1999	–	1058.91
[4], x2 = 0.2535	–	1063.43
[4], x2 = 0.2977	–	1067.32
[4], x2 = 0.3483	–	1071.88
[4], x2 = 0.401	–	1076.8
[4], x2 = 0.4512	–	1081.66
[4], x2 = 0.5013	–	1086.65
[4], x2 = 0.5522	–	1091.89
[4], x2 = 0.6013	–	1097.16
[4], x2 = 0.648	–	1102.3
[4], x2 = 0.7005	–	1108.34
[4], x2 = 0.7514	–	1114.4
[4], x2 = 0.7997	–	1120.38
[4], x2 = 0.8567	–	1127.98
[4], x2 = 0.8993	–	1133.84
[4], x2 = 0.9502	–	1141.27

CCCOCCOCCO [2-(2-propoxyethoxy)ethanol] + CC(Cl)CCl
Conditions	excess molar enthalpy [kcal/mol]	mass density [kg/m3]
[3], x2 = 0.06	-0.0351	–
[3], x2 = 0.119	-0.0599	–
[3], x2 = 0.147	-0.0709	–
[3], x2 = 0.202	-0.0895	–
[3], x2 = 0.255	-0.103	–
[3], x2 = 0.306	-0.1117	–
[3], x2 = 0.355	-0.116	–
[3], x2 = 0.402	-0.1173	–
[3], x2 = 0.447	-0.1153	–
[3], x2 = 0.511	-0.107	–
[3], x2 = 0.552	-0.0989	–
[3], x2 = 0.592	-0.0897	–
[3], x2 = 0.648	-0.0737	–
[3], x2 = 0.702	-0.0561	–
[3], x2 = 0.753	-0.0387	–
[3], x2 = 0.802	-0.0225	–
[3], x2 = 0.848	-0.00722	–
[3], x2 = 0.907	0.00621	–
[3], x2 = 0.948	0.00903	–
[4], x2 = 0.054	–	969.58
[4], x2 = 0.105	–	976.29
[4], x2 = 0.1473	–	982.03
[4], x2 = 0.203	–	989.81
[4], x2 = 0.2494	–	996.53
[4], x2 = 0.3	–	1004.1
[4], x2 = 0.3488	–	1011.66
[4], x2 = 0.4014	–	1020.11
[4], x2 = 0.4516	–	1028.46
[4], x2 = 0.5005	–	1036.91
[4], x2 = 0.5504	–	1045.89
[4], x2 = 0.5995	–	1055.07
[4], x2 = 0.6509	–	1065.09
[4], x2 = 0.7009	–	1075.28
[4], x2 = 0.752	–	1086.18
[4], x2 = 0.8015	–	1097.29
[4], x2 = 0.851	–	1109.05
[4], x2 = 0.9018	–	1121.84
[4], x2 = 0.9476	–	1134.08

CCCCOCCOCCOCCO [triethylene glycol monobutyl ether] + CC(Cl)CCl
Conditions	excess molar enthalpy [kcal/mol]	mass density [kg/m3]
[3], x2 = 0.079	-0.0579	–
[3], x2 = 0.117	-0.0778	–
[3], x2 = 0.154	-0.102	–
[3], x2 = 0.19	-0.121	–
[3], x2 = 0.256	-0.146	–
[3], x2 = 0.317	-0.167	–
[3], x2 = 0.346	-0.1746	–
[3], x2 = 0.401	-0.1859	–
[3], x2 = 0.452	-0.1912	–
[3], x2 = 0.5	-0.1913	–
[3], x2 = 0.545	-0.188	–
[3], x2 = 0.606	-0.1763	–
[3], x2 = 0.645	-0.1648	–
[3], x2 = 0.698	-0.145	–
[3], x2 = 0.746	-0.123	–
[3], x2 = 0.805	-0.0932	–
[3], x2 = 0.859	-0.0635	–
[3], x2 = 0.907	-0.0371	–
[3], x2 = 0.951	-0.0164	–
[4], x2 = 0.0919	–	996.32
[4], x2 = 0.1463	–	1001.35
[4], x2 = 0.2006	–	1006.67
[4], x2 = 0.2501	–	1011.79
[4], x2 = 0.3036	–	1017.68
[4], x2 = 0.3548	–	1023.63
[4], x2 = 0.4015	–	1029.38
[4], x2 = 0.4519	–	1035.95
[4], x2 = 0.5032	–	1043.04
[4], x2 = 0.5498	–	1049.9
[4], x2 = 0.6016	–	1058.03
[4], x2 = 0.6526	–	1066.61
[4], x2 = 0.701	–	1075.35
[4], x2 = 0.7502	–	1084.93
[4], x2 = 0.8009	–	1095.6
[4], x2 = 0.851	–	1107.21
[4], x2 = 0.9003	–	1119.7
[4], x2 = 0.9483	–	1133.01

COCCOCCOCCO [2-[2-(2-methoxyethoxy)ethoxy]ethanol]
Conditions	mass density [kg/m3]	refractive index
[1]	1043.3	–
[2]	–	1.43673

CC(Cl)CCl (stereo unspecified) [1,2-dichloropropane]
Conditions	mass density [kg/m3]	refractive index
[1]	1149.03	–
[2]	–	1.43656

CCCOCCOCCO [2-(2-propoxyethoxy)ethanol]
Conditions	mass density [kg/m3]	refractive index
[1]	962.74	–
[2]	–	1.42727

CCCCOCCOCCO [3,6-dioxa-1-decanol]
Conditions	mass density [kg/m3]	refractive index
[1]	948.48	–
[2]	–	1.42998

CCOCCOCCOCCO [2-(2-(2-ethoxyethoxy)ethoxy)ethanol] + CC(Cl)CCl
Conditions	excess molar enthalpy [kcal/mol]	mass density [kg/m3]
[3], x2 = 0.067	-0.0506	–
[3], x2 = 0.101	-0.0657	–
[3], x2 = 0.164	-0.104	–
[3], x2 = 0.195	-0.121	–
[3], x2 = 0.253	-0.145	–
[3], x2 = 0.308	-0.1638	–
[3], x2 = 0.36	-0.1773	–
[3], x2 = 0.41	-0.1859	–
[3], x2 = 0.457	-0.1887	–
[3], x2 = 0.501	-0.1888	–
[3], x2 = 0.544	-0.1854	–
[3], x2 = 0.604	-0.174	–
[3], x2 = 0.66	-0.1571	–
[3], x2 = 0.695	-0.144	–
[3], x2 = 0.745	-0.122	–
[3], x2 = 0.807	-0.0893	–
[3], x2 = 0.85	-0.0656	–
[3], x2 = 0.904	-0.036	–
[3], x2 = 0.954	-0.0131	–
[4], x2 = 0.0522	–	1020.53
[4], x2 = 0.1019	–	1024.84
[4], x2 = 0.1497	–	1029.19
[4], x2 = 0.2027	–	1034.17
[4], x2 = 0.2538	–	1039.19
[4], x2 = 0.3014	–	1044.06
[4], x2 = 0.3475	–	1048.98
[4], x2 = 0.4037	–	1055.22
[4], x2 = 0.4507	–	1060.69
[4], x2 = 0.5006	–	1066.74
[4], x2 = 0.553	–	1073.37
[4], x2 = 0.6023	–	1079.92
[4], x2 = 0.6499	–	1086.58
[4], x2 = 0.7036	–	1094.48
[4], x2 = 0.7524	–	1102.1
[4], x2 = 0.8009	–	1110.06
[4], x2 = 0.8494	–	1118.49
[4], x2 = 0.8988	–	1127.79
[4], x2 = 0.9495	–	1138.04

CCCCOCCOCCO [3,6-dioxa-1-decanol] + CC(Cl)CCl
Conditions	excess molar enthalpy [kcal/mol]	mass density [kg/m3]
[3], x2 = 0.066	-0.039	–
[3], x2 = 0.098	-0.0499	–
[3], x2 = 0.161	-0.0736	–
[3], x2 = 0.191	-0.086	–
[3], x2 = 0.248	-0.0983	–
[3], x2 = 0.303	-0.107	–
[3], x2 = 0.355	-0.1121	–
[3], x2 = 0.404	-0.113	–
[3], x2 = 0.45	-0.1104	–
[3], x2 = 0.495	-0.105	–
[3], x2 = 0.558	-0.0936	–
[3], x2 = 0.598	-0.0852	–
[3], x2 = 0.654	-0.0686	–
[3], x2 = 0.707	-0.0514	–
[3], x2 = 0.757	-0.0343	–
[3], x2 = 0.803	-0.0186	–
[3], x2 = 0.847	-0.00454	–
[3], x2 = 0.902	0.00837	–
[3], x2 = 0.953	0.00985	–
[4], x2 = 0.052	–	954.88
[4], x2 = 0.1	–	961.07
[4], x2 = 0.155	–	968.38
[4], x2 = 0.1997	–	974.56
[4], x2 = 0.2496	–	981.76
[4], x2 = 0.3037	–	989.93
[4], x2 = 0.3497	–	997.2
[4], x2 = 0.4033	–	1006.02
[4], x2 = 0.4504	–	1014.14
[4], x2 = 0.4998	–	1023.03
[4], x2 = 0.5535	–	1033.23
[4], x2 = 0.6001	–	1042.57
[4], x2 = 0.6494	–	1052.96
[4], x2 = 0.7024	–	1064.78
[4], x2 = 0.7527	–	1076.67
[4], x2 = 0.8024	–	1089.22
[4], x2 = 0.8488	–	1101.75
[4], x2 = 0.901	–	1116.84
[4], x2 = 0.9479	–	1131.48

CCOCCOCCOCCO [2-(2-(2-ethoxyethoxy)ethoxy)ethanol]
Conditions	mass density [kg/m3]	refractive index
[1]	1016.19	–
[2]	–	1.43623
